Experimental data from ChEMBL document CHEMBL5113400, “Design, synthesis, and biological evaluation of trizole-based heteroaromatic derivatives as Bcr-Abl kinase inhibitors” (Eur J Med Chem, 2022).
pIC50: −log10 of the molar value.

How the values were obtained:
K-562R = assay: Antiproliferative activity against human K-562R cells expressing Bcr-Abl T315I mutant assessed as inhibition of cell growth incubated for 48 hrs by MTT assay; assay type: functional, cell-based
Bcr/Abl fusion protein [1] = target: Bcr/Abl fusion protein (Homo sapiens, UniProt P00519); assay: Inhibition of wild type Bcr-Abl (unknown origin) incubated for 1 hr in presence of ATP by ADP-Glo kinase assay; assay type: protein assay
Bcr/Abl fusion protein [2] = target: Bcr/Abl fusion protein (Homo sapiens, UniProt P00519, T315I); assay: Inhibition of Bcr-Abl T315I mutant (unknown origin) incubated for 1 hr in presence of ATP by ADP-Glo kinase assay; assay type: protein assay
K562 = assay: Antiproliferative activity against human K562 cells assessed as inhibition of cell growth incubated for 48 hrs by MTT assay; assay type: functional, cell-based; details: K562, 48 h
BaF3 = assay: Antiproliferative activity against mouse BaF3 cells expressing Bcr-Abl T315I mutant assessed as inhibition of cell growth at 30 uM incubated for 72 hrs by CellTiter-Glo luminescent assay; assay type: functional
K562/Adr = assay: Antiproliferative activity against human Adriamycin-resistant K562/Adr cells assessed as inhibition of cell growth incubated for 48 hrs by MTT assay; assay type: functional, cell-based

Row | SMILES | pIC50 (K-562R) | pIC50 (Bcr/Abl fusion protein [1]) | pIC50 (Bcr/Abl fusion protein [2]) | pIC50 (K562) | inhibition at 30 µM (BaF3) | pIC50 (K562/Adr)
1 | Cc1ccc(C(=O)Nc2ccc(CN3CCN(C)CC3)c(C(F)(F)F)c2)cc1C#Cc1cnc2cccnn12 [PONATINIB] | 7.10 | – | – | – | – | –
2 | CC(C)(C)OC(=O)N1C[C@@H](n2cc(-c3ccc4nc(N)sc4n3)nn2)C[C@H]1C(=O)Nc1ccc(F)c(F)c1 | – | 7.76 | 6.31 | 4.58 | 16.8% | 4.19
3 | C=CC(=O)Nc1ccc(-c2cn([C@@H]3CN[C@H](C(=O)Nc4ccc(Cl)c(C(F)(F)F)c4)C3)nn2)cn1 | – | 8.03 | 6.85 | 5.41 | 26% | 4.09
4 | Nc1ccc(-c2cn([C@@H]3CN[C@H](C(=O)Nc4ccc(Cl)c(C(F)(F)F)c4)C3)nn2)cn1 | – | 8.51 | 6.52 | 4.98 | 27.9% | 4.60
5 | O=C(Nc1nc2ccc(-c3cn([C@@H]4CN[C@H](C(=O)Nc5ccc(Br)cc5)C4)nn3)nc2s1)C1CC1 | – | 7.98 | 7.48 | 5.09 | 66.5% | 4.32
